Like-named read-outs stand apart in the source and are kept apart here.
How the values were obtained:
MM1S cells = test: Half inhibitory concentration (IC50) on BET-expressing tumor cells, CCK-8, MM1S; type: cell-based; details: Homo sapiens, MM1.S, 48/72 h, read-out: IC50 (nM)/MM1S cell line
Protocol: (§1) BET-expressing cells MV-4-11 cells (human B granulocytic leukemia cells), MDA-MB-231 cells (human breast cancer cells), MDA-MB-468 cells (human breast cancer cells), MDA-MB-453 Cells (human breast cancer cells), MM1S cells (myeloma (immunoglobulin A lambda), B lymphoblasts) and SR cells (human large cell immunoblast lymphoma) were purchased from the American Type Culture Collection (ATCC).
(§2) The cells used in this present disclosure were cultured in a 37° C. incubator containing 5% CO2. The complete cell culture medium was RPMI 1640/IMDM/DMEM medium with 10% fetal bovine serum, and the final concentrations of penicillin and streptomycin were 100 U/mL, respectively. All cells were tested negative for mycoplasma with mycoplasma detection kit before the experiment.
(§3) Determination of the Half Inhibitory Concentration (IC50) of PROTAD Compounds on Tumor Cells
(§4) MV-411 cells, MM1S cells and SR cells were seeded in 100 μL IMDM/RPMI1640/DMEM complete medium at a density of 15000/10000 cells/well; MDA-MB-231 cells, MDA-MB-468 cells, and MDA-MB453 cells were seeded in 100 μL IMDM/RPMI1640/DMEM complete medium at a density of 3000/5000 cells/well, respectively. 100 μL of the inoculated cells were treated with 0.5 μL diluted PROTAD compounds of the present disclosure to be tested at 10 successively decreasing concentrations (starting at the highest concentration of 10 μM; 5-fold serial dilutions). After the cells were treated with the tested drugs 48/72 h, the cell viability was determined according to the CCK-8 reagent manual. The negative control was DMSO, and the positive control was a commercial inhibitor. After CCK-8 treatment for 2 h, the value of O.D.450 was measured using a microplate reader.

MDA-MB-453 cells = test: Half inhibitory concentration (IC50) on BET-expressing tumor cells, CCK-8, MDA-MB-453; type: cell-based, human; details: 48/72 h, read-out: IC50 (nM)/MDA-MB-453 cell line
Protocol: as §1, §2, §3, §4

MDA-MB-468 cells = test: Half inhibitory concentration (IC50) on BET-expressing tumor cells, CCK-8, MDA-MB-468; type: cell-based; details: Homo sapiens, 48/72 h, read-out: IC50 (nM)/MDA-MB-468 cell line
Protocol: as §1, §2, §3, §4

MV-4-11 cells = test: Half inhibitory concentration (IC50) on BET-expressing tumor cells, CCK-8, MV-4-11; details: Homo sapiens, MV4-11, read-out: IC50 (nM)/MV-4-11 cell line, MV-4-11 cells, 48/72 h, CCK-8
MDA-MB-231 cells = test: Half inhibitory concentration (IC50) on BET-expressing tumor cells, CCK-8, MDA-MB-231; type: cell-based; details: Homo sapiens, 48/72 h, read-out: IC50 (nM)/MDA-MB-231 cell line
Protocol: as §1, §2, §3, §4

ALK protein [1] = target: T1, ALK protein (Homo sapiens, UniProt Q9UM73); test: Western-blot half degradation concentration (DC50) of ALK protein in H3122 cells; type: cell-based; details: 24 h drug treatment, read-out: DC50 (nM)/ H3122 cell line
Target sequence in this assay (Q9UM73 with tags, fused parts or gaps): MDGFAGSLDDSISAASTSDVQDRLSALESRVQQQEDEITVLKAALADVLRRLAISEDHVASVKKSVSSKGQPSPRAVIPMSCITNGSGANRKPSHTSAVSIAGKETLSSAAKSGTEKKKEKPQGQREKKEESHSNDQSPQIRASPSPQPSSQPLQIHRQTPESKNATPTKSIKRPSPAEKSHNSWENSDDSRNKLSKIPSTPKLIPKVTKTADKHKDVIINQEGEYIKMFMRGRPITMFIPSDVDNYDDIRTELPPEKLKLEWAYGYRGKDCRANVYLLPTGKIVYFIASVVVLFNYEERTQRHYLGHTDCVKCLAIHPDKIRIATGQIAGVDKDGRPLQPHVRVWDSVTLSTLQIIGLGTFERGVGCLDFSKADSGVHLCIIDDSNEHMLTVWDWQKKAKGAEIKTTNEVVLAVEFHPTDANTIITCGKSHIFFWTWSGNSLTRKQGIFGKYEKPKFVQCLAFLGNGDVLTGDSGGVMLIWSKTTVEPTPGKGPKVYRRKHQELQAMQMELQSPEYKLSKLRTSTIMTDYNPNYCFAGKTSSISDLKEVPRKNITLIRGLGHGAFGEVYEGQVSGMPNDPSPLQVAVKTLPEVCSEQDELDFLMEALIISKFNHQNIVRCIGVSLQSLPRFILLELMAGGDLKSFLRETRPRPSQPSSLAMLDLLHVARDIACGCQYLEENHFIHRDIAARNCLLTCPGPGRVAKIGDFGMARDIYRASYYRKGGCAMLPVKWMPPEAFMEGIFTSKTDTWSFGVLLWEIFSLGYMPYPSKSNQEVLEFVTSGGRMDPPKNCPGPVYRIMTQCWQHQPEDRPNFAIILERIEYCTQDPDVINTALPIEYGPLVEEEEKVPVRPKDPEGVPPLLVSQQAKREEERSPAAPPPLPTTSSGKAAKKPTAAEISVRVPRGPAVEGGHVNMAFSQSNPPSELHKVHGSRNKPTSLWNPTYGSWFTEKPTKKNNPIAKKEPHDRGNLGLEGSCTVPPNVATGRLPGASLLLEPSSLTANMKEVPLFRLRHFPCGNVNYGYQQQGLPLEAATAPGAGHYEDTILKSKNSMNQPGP

ALK protein [2] = target: T1, ALK protein; test: Western-blot half degradation concentration (DC50) of ALK protein in SR cells; type: cell-based; details: 24 h drug treatment, read-out: DC50 (nM)/ SR cell line
Protocol: ALK-positive SR cells (human large cell immunoblastic lymphoma) were purchased from the American Type Culture Collection (ATCC); H3122 cells (human non-small cell lung cancer) were from the Shanghai University of Science and Technology Lin Haifan's research group.
The cells used in this present disclosure were cultured in a 37° C. incubator containing 5% CO2.
DC50 (drug concentration corresponding to protein degradation to 50%) calculation: according to the gray value of the corresponding Western blotting band after drug treatment, fitting the relationship curve between drug concentration and gray value to calculate the drug concentration range corresponding to half of the gray value.
Target sequence in this assay (Q9UM73 with tags, fused parts or gaps): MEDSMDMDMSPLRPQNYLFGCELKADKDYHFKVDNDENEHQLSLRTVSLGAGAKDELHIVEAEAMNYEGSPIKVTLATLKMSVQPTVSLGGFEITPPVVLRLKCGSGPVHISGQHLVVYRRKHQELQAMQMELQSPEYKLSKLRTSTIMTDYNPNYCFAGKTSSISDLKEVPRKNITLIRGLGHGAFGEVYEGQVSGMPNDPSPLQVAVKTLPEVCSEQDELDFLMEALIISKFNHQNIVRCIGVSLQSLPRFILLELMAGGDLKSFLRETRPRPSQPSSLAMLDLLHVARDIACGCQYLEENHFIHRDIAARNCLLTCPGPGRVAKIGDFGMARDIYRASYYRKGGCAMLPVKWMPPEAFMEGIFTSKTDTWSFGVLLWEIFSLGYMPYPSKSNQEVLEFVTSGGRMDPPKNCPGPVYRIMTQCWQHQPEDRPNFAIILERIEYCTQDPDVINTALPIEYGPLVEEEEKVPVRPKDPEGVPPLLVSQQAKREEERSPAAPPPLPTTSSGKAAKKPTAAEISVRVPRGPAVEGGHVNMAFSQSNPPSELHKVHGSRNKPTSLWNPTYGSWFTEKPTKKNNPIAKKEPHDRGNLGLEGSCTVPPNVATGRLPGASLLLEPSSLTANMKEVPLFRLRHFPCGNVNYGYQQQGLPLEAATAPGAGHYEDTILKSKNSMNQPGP

SR cells = test: Half inhibitory concentration (IC50) on ALK-positive SR cell proliferation (CCK-8); type: cell-based; details: Homo sapiens; SR cells, 72 h drug treatment, CCK-8; read-out: IC50 (nM)/ SR cell line
How it was run: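 SR cells seeded at 10,000 cells/well in RPMI1640 and treated with PROTAD compounds at 10 concentrations (top 10 μM, 5-fold dilutions) for 72 h at 37° C, 5% CO2. Viability read by CCK-8 (2 h) at OD450; DMSO as negative control.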

[3] = Homo sapiens, MDA-MB-453, MDA-MB-453 cells

SMILES | IC50 (MM1S cells) [nM] | IC50 (MDA-MB-453 cells; [3]) [nM] | IC50 (MDA-MB-468 cells) [nM] | IC50 (MV-4-11 cells) [nM] | IC50 (MDA-MB-231 cells) [nM] | IC50 (MDA-MB-453 cells; MDA-MB-453 cells) [nM] | DC50 (ALK protein [1]) [nM] | DC50 (ALK protein [2]) [nM] | IC50 (SR cells) [nM]
Cc1sc2c(c1C)C(c1ccc(Cl)cc1)=N[C@@H](CC(=O)NCCCSc1cccc3c1C(=O)N(C1CCC(=O)NC1=O)C3=O)c1nnc(C)n1-2 (stereo partly drawn) [SIAIS171013, 2-((S)-4-(4-chlorophenyl)-2,3,9-trimethyl-6H-thieno[3,2-f][1,2,4]triazolo[4,3-a][1,4]diazepin-6-yl)-N-(3-((2-(2,6-dioxopiperidin-3-yl)-1,3-dioxoisoindolin-4-yl)thio)propyl)acetamide] | 22.6 | 1090 | > 300 | 8.6 ± 8.7 | > 2820 |  |  |  | 
Cc1sc2c(c1C)C(c1ccc(Cl)cc1)=N[C@@H](CC(=O)NCCCCCCCCSc1cccc3c1C(=O)N(C1CCC(=O)NC1=O)C3=O)c1nnc(C)n1-2 (stereo partly drawn) [SIAIS171049, 2-((S)-4-(4-chlorophenyl)-2,3,9-trimethyl-6H-thieno[3,2-f][1,2,4]triazolo[4,3-a][1,4]diazepin-6-yl)-N-(8-((2-(2,6-dioxopiperidin-3-yl)-1,3-dioxoisoindolin-4-yl)thio)octyl)acetamide] | 3.06 | 166 | 1730 ± 1650 | 7.2 ± 9.2 | 645 ± 249 | 237 |  |  | 
Cc1sc2c(c1C)C(c1ccc(Cl)cc1)=N[C@@H](CC(=O)NCCCCCCCSc1cccc3c1C(=O)N(C1CCC(=O)NC1=O)C3=O)c1nnc(C)n1-2 (stereo partly drawn) [SIAIS171040, 2-((S)-4-(4-chlorophenyl)-2,3,9-trimethyl-6H-thieno[3,2-f][1,2,4]triazolo[4,3-a][1,4]diazepin-6-yl)-N-(7-((2-(2,6-dioxopiperidin-3-yl)-1,3-dioxoisoindolin-4-yl)thio)heptyl)acetamide] | 2.78 | 85 | 46 ± 12 | 2.2 ± 2 | 69 ± 38 | 75.7 |  |  | 
Cc1sc2c(c1C)C(c1ccc(Cl)cc1)=N[C@@H](CC(=O)NCCCCCCCCSc1cccc3c1CN(C1CCC(=O)NC1=O)C3=O)c1nnc(C)n1-2 (stereo partly drawn) [SIAIS171145, 2-((S)-4-(4-chlorophenyl)-2,3,9-trimethyl-6H-thieno[3,2-f][1,2,4]triazolo[4,3-a][1,4]diazepin-6-yl)-N-(8-((2-(2,6-dioxopiperidin-3-yl)-1-oxoisoindolin-4-yl)thio)octyl)acetamide] | 1.2 | 135 | 948 ± 241 | 2 ± 1.8 | 537 ± 148 | 222 |  |  | 
Cc1sc2c(c1C)C(c1ccc(Cl)cc1)=N[C@@H](CC(=O)NCCSc1cccc3c1CN(C1CCC(=O)NC1=O)C3=O)c1nnc(C)n1-2 (stereo partly drawn) [SIAIS171138, 2-((S)-4-(4-chlorophenyl)-2,3,9-trimethyl-6H-thieno[3,2-f][1,2,4]triazolo[4,3-a][1,4]diazepin-6-yl)-N-(2-((2-(2,6-dioxopiperidin-3-yl)-1-oxoisoindolin-4-yl)thio)ethyl)acetamide] | 3.1 | 2630 | > 1740 | 8.6 ± 9.1 | > 10000 | 2800 |  |  | 
COc1cc(N2CCC(N3CCN(C(=O)CSc4cccc5c4C(=O)N(C4CCC(=O)NC4=O)C5=O)CC3)CC2)ccc1Nc1ncc(Cl)c(Nc2ccccc2P(C)(C)=O)n1 (centres unmarked) [SIAIS164062, 4-((2-(4-(1-(4-((5-chloro-4-((2-(dimethylphosphoryl)phenyl)amino)pyrimidin-2-yl)amino)-3-methoxyphenyl)piperidin-4-yl)piperazin-1-yl)-2-oxoethyl)thio)-2-(2,6-dioxopiperidin-3-yl)isoindoline-1,3-dione] |  |  |  |  |  |  | 13 | 6 | 11.6 ± 6.2
Cc1sc2c(c1C)C(c1ccc(Cl)cc1)=N[C@@H](CC(=O)NCCCCCCCSc1cccc3c1CN(C1CCC(=O)NC1=O)C3=O)c1nnc(C)n1-2 (stereo partly drawn) [SIAIS171144, 2-((S)-4-(4-chlorophenyl)-2,3,9-trimethyl-6H-thieno[3,2-f][1,2,4]triazolo[4,3-a][1,4]diazepin-6-yl)-N-(7-((2-(2,6-dioxopiperidin-3-yl)-1-oxoisoindolin-4-yl)thio)heptyl)acetamide] | 0.7 | 52.3 | 9.6 ± 2.9 | 0.9 ± 0.8 | 55 ± 31 | 63.9 |  |  | 
COc1cc(N2CCN(C(=O)CCCCCSc3cccc4c3C(=O)N(C3CCC(=O)NC3=O)C4=O)CC2)ccc1Nc1ncc(Cl)c(Nc2ccccc2P(C)(C)=O)n1 (centres unmarked) [SIAIS1197121, 4-((6-(4-(4-((5-chloro-4-((2-(dimethylphosphoryl)phenyl)amino)pyrimidin-2-yl)amino)-3-methoxyphenyl)piperazin-1-yl)-6-oxohexyl)thio)-2-(2,6-dioxopiperidin-3-yl)isoindoline-1,3-dione] |  |  |  |  |  |  | 500 | 50 to 500 | 7.4 ± 4.8
COc1cc(N2CCC(N3CCN(C(=O)CCCCCSc4cccc5c4C(=O)N(C4CCC(=O)NC4=O)C5=O)CC3)CC2)ccc1Nc1ncc(Cl)c(Nc2ccccc2P(C)(C)=O)n1 (centres unmarked) [SIAIS164065, 4-((6-(4-(1-(4-((5-chloro-4-((2-(dimethylphosphoryl)phenyl)amino)pyrimidin-2-yl)amino)-3-methoxyphenyl)piperidin-4-yl)piperazin-1-yl)-6-oxohexyl)thio)-2-(2,6-dioxopiperidin-3-yl)isoindoline-1,3-dione] |  |  |  |  |  |  | 173 | 5.2 | 2.9 ± 2.7
Cc1sc2c(c1C)C(c1ccc(Cl)cc1)=N[C@@H](CC(=O)NCCCCCCSc1cccc3c1C(=O)N(C1CCC(=O)NC1=O)C3=O)c1nnc(C)n1-2 (stereo partly drawn) [SIAIS171039, 2-((S)-4-(4-chlorophenyl)-2,3,9-trimethyl-6H-thieno[3,2-f][1,2,4]triazolo[4,3-a][1,4]diazepin-6-yl)-N-(6-((2-(2,6-dioxopiperidin-3-yl)-1,3-dioxoisoindolin-4-yl)thio)hexyl)acetamide] | 0.82 | 167 | 92 ± 43 | 2.7 ± 2.5 | 98 ± 82 | 162 |  |  | 
COc1cc(N2CCC(N3CCN(C(=O)CCSc4cccc5c4C(=O)N(C4CCC(=O)NC4=O)C5=O)CC3)CC2)ccc1Nc1ncc(Cl)c(Nc2ccccc2P(C)(C)=O)n1 (centres unmarked) [SIAIS164063, 4-((3-(4-(1-(4-((5-chloro-4-((2-(dimethylphosphoryl)phenyl)amino)pyrimidin-2-yl)amino)-3-methoxyphenyl)piperidin-4-yl)piperazin-1-yl)-3-oxopropyl)thio)-2-(2,6-dioxopiperidin-3-yl)isoindoline-1,3-dione] |  |  |  |  |  |  | 500 | 500 | 15.7 ± 9.8
COc1cc(N2CCC(N3CCN(C(=O)CCCSc4cccc5c4C(=O)N(C4CCC(=O)NC4=O)C5=O)CC3)CC2)ccc1Nc1ncc(Cl)c(Nc2ccccc2P(C)(C)=O)n1 (centres unmarked) [SIAIS164064, 4-((4-(4-(1-(4-((5-chloro-4-((2-(dimethylphosphoryl)phenyl)amino)pyrimidin-2-yl)amino)-3-methoxyphenyl)piperidin-4-yl)piperazin-1-yl)-4-oxobutyl)thio)-2-(2,6-dioxopiperidin-3-yl)isoindoline-1,3-dione] |  |  |  |  |  |  | 49 | 1.1 | 4.4 ± 2.5
